Experimental data taken from patent US12281122B1, “PI3K inhibitors” (Cogent Biosciences, Inc., priority 2023, dated 2025).

Tests used:
[1] = system: T47D (PI3Kα-H1047R) cell line; assay: HTRF phospho-AKT(S473) cell assay in T47D cells; assay type: cell-based, human; settings: Homo sapiens; HTRF phospho-AKT(S473), T47D (PI3Kα-H1047R) cells, 2 hours compound incubation
Procedure, shortened: (§1)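 pAKT(S473) in lysates read by HTRF after a 2 h, 37 °C compound exposure (12-point 1:3 series, max 0.5% DMSO). SKBR3 (wild type, top 10 μM) received 70 ng/ml PDGF-BB during the final 15 min; T47D (H1047R, top 5 μM) was unstimulated. IC50 values derived from the dose-response.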

[2] = system: SKBR3 (PI3Kα-Wild Type) cell line; assay: HTRF phospho-AKT(S473) cell assay in SKBR3 cells; assay type: cell-based, human; settings: Homo sapiens, SK-BR-3; HTRF phospho-AKT(S473), SKBR3 (PI3Kα-Wild Type) cells, 2 hours compound incubation, PDGF-BB stimulated
Procedure, shortened: as §1

Row | Structure (SMILES) | IC50 [1] | IC50 [2]
1 | Cc1cnc([C@H]2CCCN(c3nc4c([C@@H](C)Nc5ccc(Cl)nc5C(=O)NS(C)(=O)=O)cc(C)cc4c(=O)n3C)C2)nc1 (relative stereo) [Compound 621, 6-chloro-3-(((R)-1-(3,6-dimethyl-2-((R*)-3-(5-methylpyrimidin-2-yl)piperidin-1-yl)-4-oxo-3,4-dihydroquinazolin-8-yl)ethyl)amino)-N-(methylsulfonyl) picolinamide] | 500 to 1000 nM | ≥ 5000 nM
2 | Cc1cc([C@@H](C)Nc2ccc(Cl)nc2C(=O)NS(C)(=O)=O)c2nc(N3CCC[C@@H](c4cnc(C)nc4)C3)n(C)c(=O)c2c1 (relative stereo) [Compound 645, 6-chloro-3-(((R)-1-(3,6-dimethyl-2-((R*)-3-(2-methylpyrimidin-5-yl)piperidin-1-yl)-4-oxo-3,4-dihydroquinazolin-8-yl)ethyl)amino)-N-(methylsulfonyl) picolinamide] | 500 to 1000 nM | ≥ 5000 nM
3 | Cc1cc([C@@H](C)Nc2ccc(Cl)nc2C(=O)NS(C)(=O)=O)c2nc(N3CCC[C@H](c4nccc(C)n4)C3)n(C)c(=O)c2c1 (relative stereo) [Compound 648, 6-chloro-3-(((R)-1-(3,6-dimethyl-2-((R*)-3-(4-methylpyrimidin-2-yl)piperidin-1-yl)-4-oxo-3,4-dihydroquinazolin-8-yl)ethyl)amino)-N-(methylsulfonyl) picolinamide] | 1000 to 5000 nM | ≥ 5000 nM
4 | Cc1cc([C@@H](C)Nc2ccc(Cl)nc2C(=O)NS(C)(=O)=O)c2nc(N3CC[C@H](c4cnc(C)nc4)C3)n(C)c(=O)c2c1 (relative stereo) [Compound 658, 6-chloro-3-(((R)-1-(3,6-dimethyl-2-((R*)-3-(2-methylpyrimidin-5-yl)pyrrolidin-1-yl)-4-oxo-3,4-dihydroquinazolin-8-yl)ethyl)amino)-N-(methylsulfonyl) picolinamide] | 500 to 1000 nM | ≥ 5000 nM
5 | Cc1cc([C@@H](C)Nc2ccc(Cl)nc2C(=O)NS(C)(=O)=O)c2nc(N3CCC[C@H](c4c[nH]nc4C)C3)n(C)c(=O)c2c1 (relative stereo) [Compound 703, 6-chloro-3-(((R)-1-(3,6-dimethyl-2-((R*)-3-(3-methyl-1H-pyrazol-4-yl)piperidin-1-yl)-4-oxo-3,4-dihydroquinazolin-8-yl)ethyl)amino)-N-(methylsulfonyl) picolinamide] | 250 to 500 nM | ≥ 5000 nM
6 | Cc1cc([C@@H](C)Nc2ccc(Cl)nc2C(=O)NS(C)(=O)=O)c2nc(N3C[C@H]4CC4(c4cnc(C)cn4)C3)n(C)c(=O)c2c1 (relative stereo) [Compound 749, 6-chloro-3-(((R)-1-(3,6-dimethyl-2-((1R*,5S*)-1-(5-methylpyrazin-2-yl)-3-azabicyclo[3.1.0]hexan-3-yl)-4-oxo-3,4-dihydroquinazolin-8-yl)ethyl)amino)-N-(methylsulfonyl) picolinamide] | 250 to 500 nM | ≥ 5000 nM
7 | Cc1cc([C@@H](C)Nc2ccc(Cl)nc2C(=O)NS(C)(=O)=O)c2nc(N3C[C@@H]4C[C@]4(c4cnc(C)cn4)C3)n(C)c(=O)c2c1 (relative stereo) [Compound 750, 6-chloro-3-(((R)-1-(3,6-dimethyl-2-((1R*,5R*)-1-(5-methylpyrazin-2-yl)-3-azabicyclo[3.1.0]hexan-3-yl)-4-oxo-3,4-dihydroquinazolin-8-yl)ethyl)amino)-N-(methylsulfonyl) picolinamide] | 250 to 500 nM | ≥ 5000 nM
8 | Cc1cc([C@@H](C)Nc2ccc(Cl)nc2C(=O)NS(C)(=O)=O)c2nc(N3C[C@H]4C[C@@]4(c4cnc(C)nc4)C3)n(C)c(=O)c2c1 (relative stereo) [Compound 751, 6-chloro-3-(((R)-1-(3,6-dimethyl-2-((1R*,5S*)-1-(2-methylpyrimidin-5-yl)-3-azabicyclo[3.1.0]hexan-3-yl)-4-oxo-3,4-dihydroquinazolin-8-yl)ethyl)amino)-N-(methylsulfonyl) picolinamide] | 250 to 500 nM | ≥ 5000 nM
9 | Cc1cc([C@@H](C)Nc2ccc(Cl)nc2C(=O)NS(C)(=O)=O)c2nc(N3C[C@@H]4CC4(c4cnc(C)nc4)C3)n(C)c(=O)c2c1 (relative stereo) [Compound 752, 6-chloro-3-(((R)-1-(3,6-dimethyl-2-((1R*,5R*)-1-(2-methylpyrimidin-5-yl)-3-azabicyclo[3.1.0]hexan-3-yl)-4-oxo-3,4-dihydroquinazolin-8-yl)ethyl)amino)-N-(methylsulfonyl) picolinamide] | 500 to 1000 nM | ≥ 5000 nM
10 | Cc1cc([C@@H](C)Nc2ccc(Cl)nc2C(=O)NS(C)(=O)=O)c2nc(N3C[C@@H]4C[C@H]3C[C@H]4c3nn(C)cc3F)n(C)c(=O)c2c1 (relative stereo) [Compound 761, 6-chloro-3-(((R)-1-(2-((1R*,4S*,5S*)-5-(4-fluoro-1-methyl-1H-pyrazol-3-yl)-2-azabicyclo[2.2.1]heptan-2-yl)-3,6-dimethyl-4-oxo-3,4-dihydroquinazolin-8-yl)ethyl)amino)-N-(methylsulfonyl) picolinamide] | 250 to 500 nM | 1000 to 5000 nM

More lines, now with the values ahead:

Row | IC50 [1] | IC50 [2] | Structure (SMILES)
11 | 250 to 500 nM | 1000 to 5000 nM | Cc1cc([C@@H](C)Nc2ccc(Cl)nc2C(=O)NS(C)(=O)=O)c2nc(N3CCC[C@@H](c4cnccn4)C3)n(C)c(=O)c2c1 (relative stereo) [Compound 618, 6-chloro-3-(((R)-1-(3,6-dimethyl-4-oxo-2-((R*)-3-(pyrazin-2-yl)piperidin-1-yl)-3,4-dihydroquinazolin-8-yl)ethyl)amino)-N-(methylsulfonyl) picolinamide]
12 | < 250 nM | ≥ 5000 nM | Cc1cc([C@@H](C)Nc2ccc(Cl)nc2C(=O)NS(C)(=O)=O)c2nc(N3CCC[C@H](c4cnccn4)C3)n(C)c(=O)c2c1 (relative stereo) [Compound 619, 6-chloro-3-(((R)-1-(3,6-dimethyl-4-oxo-2-((R*)-3-(pyrazin-2-yl)piperidin-1-yl)-3,4-dihydroquinazolin-8-yl)ethyl)amino)-N-(methylsulfonyl) picolinamide]
13 | 250 to 500 nM | ≥ 5000 nM | Cc1cnc([C@@H]2CCCN(c3nc4c([C@@H](C)Nc5ccc(Cl)nc5C(=O)NS(C)(=O)=O)cc(C)cc4c(=O)n3C)C2)nc1 (relative stereo) [Compound 625, 6-chloro-3-(((R)-1-(3,6-dimethyl-2-((R*)-3-(5-methylpyrimidin-2-yl)piperidin-1-yl)-4-oxo-3,4-dihydroquinazolin-8-yl)ethyl)amino)-N-(methylsulfonyl) picolinamide]
14 | < 250 nM | ≥ 5000 nM | Cc1cc([C@@H](C)Nc2ccc(Cl)nc2C(=O)NS(C)(=O)=O)c2nc(N3CCC[C@H](c4cnc(C)nc4)C3)n(C)c(=O)c2c1 (relative stereo) [Compound 646, 6-chloro-3-(((R)-1-(3,6-dimethyl-2-((R*)-3-(2-methylpyrimidin-5-yl)piperidin-1-yl)-4-oxo-3,4-dihydroquinazolin-8-yl)ethyl)amino)-N-(methylsulfonyl) picolinamide]
15 | 250 to 500 nM | ≥ 5000 nM | Cc1cc([C@@H](C)Nc2ccc(Cl)nc2C(=O)NS(C)(=O)=O)c2nc(N3CCC[C@@H](c4nccc(C)n4)C3)n(C)c(=O)c2c1 (relative stereo) [Compound 647, 6-chloro-3-(((R)-1-(3,6-dimethyl-2-((R*)-3-(4-methylpyrimidin-2-yl)piperidin-1-yl)-4-oxo-3,4-dihydroquinazolin-8-yl)ethyl)amino)-N-(methylsulfonyl) picolinamide]
16 | 250 to 500 nM | 1000 to 5000 nM | Cc1cc([C@@H](C)Nc2ccc(Cl)nc2C(=O)NS(C)(=O)=O)c2nc(N3CC[C@H](c4cnc(C)c(C#N)c4)C3)n(C)c(=O)c2c1 (relative stereo) [Compound 656, 6-chloro-3-(((R)-1-(2-((R*)-3-(5-cyano-6-methylpyridin-3-yl)pyrrolidin-1-yl)-3,6-dimethyl-4-oxo-3,4-dihydroquinazolin-8-yl)ethyl)amino)-N-(methylsulfonyl) picolinamide]
17 | 250 to 500 nM | ≥ 5000 nM | Cc1cc([C@@H](C)Nc2ccc(Cl)nc2C(=O)NS(C)(=O)=O)c2nc(N3CC[C@@H](c4cnc(C)nc4)C3)n(C)c(=O)c2c1 (relative stereo) [Compound 657, 6-chloro-3-(((R)-1-(3,6-dimethyl-2-((R*)-3-(2-methylpyrimidin-5-yl)pyrrolidin-1-yl)-4-oxo-3,4-dihydroquinazolin-8-yl)ethyl)amino)-N-(methylsulfonyl) picolinamide]
18 | < 250 nM | 1000 to 5000 nM | Cc1cc([C@@H](C)Nc2ccc(Cl)nc2C(=O)NS(C)(=O)=O)c2nc(N3CC[C@@H](c4ccc(C)nc4)C3)n(C)c(=O)c2c1 (relative stereo) [Compound 659, 6-chloro-3-(((R)-1-(3,6-dimethyl-2-((R*)-3-(6-methylpyridin-3-yl)pyrrolidin-1-yl)-4-oxo-3,4-dihydroquinazolin-8-yl)ethyl)amino)-N-(methylsulfonyl) picolinamide]
19 | 250 to 500 nM | ≥ 5000 nM | Cc1cc([C@@H](C)Nc2ccc(Cl)nc2C(=O)NS(C)(=O)=O)c2nc(N3CC[C@H](c4ccc(C)nc4)C3)n(C)c(=O)c2c1 (relative stereo) [Compound 660, 6-chloro-3-(((R)-1-(3,6-dimethyl-2-((R*)-3-(6-methylpyridin-3-yl)pyrrolidin-1-yl)-4-oxo-3,4-dihydroquinazolin-8-yl)ethyl)amino)-N-(methylsulfonyl) picolinamide]
20 | 250 to 500 nM | ≥ 5000 nM | Cc1cc([C@@H](C)Nc2ccc(Cl)nc2C(=O)NS(C)(=O)=O)c2nc(N3CC[C@H](Oc4ccc(F)cc4)C3)n(C)c(=O)c2c1 (relative stereo) [Compound 691, 6-chloro-3-(((R)-1-(2-((R*)-3-(4-fluorophenoxy)pyrrolidin-1-yl)-3,6-dimethyl-4-oxo-3,4-dihydroquinazolin-8-yl)ethyl)amino)-N-(methylsulfonyl) picolinamide]
